Test results reported in US20220193072A1, “METHODS OF TREATING BREAST CANCER WITH TETRAHYDRONAPHTHALENE DERIVATIVES AS ESTROGEN RECEPTOR DEGRADER” (Arvinas Operations, Inc., priority 2020, published 2022).
Changes are numbered by the printed parent chain. Where “and” joins values, the source holds several entries; their conditions need not be identical. Equal entries are not always repeated.

Columns and labels:
ERα (ESR1 Y537S) = target: T1, ERα (ESR1 Y537S) (Homo sapiens, UniProt P03372, Y537S); experiment: Tumor ERα levels in ESR1 (Y537S) PDX model; format: in vivo; conditions: for reduction of tumor ERα levels: ESR1 (Y537S) PDX, 28 days
T1 construct: a hormone-independent patient-derived xenograft model; from tissue; host or cells: ESR1 (Y537S) patient-derived xenograft tumour grown in mice
T1 sequence (P03372 1-595 Y537S): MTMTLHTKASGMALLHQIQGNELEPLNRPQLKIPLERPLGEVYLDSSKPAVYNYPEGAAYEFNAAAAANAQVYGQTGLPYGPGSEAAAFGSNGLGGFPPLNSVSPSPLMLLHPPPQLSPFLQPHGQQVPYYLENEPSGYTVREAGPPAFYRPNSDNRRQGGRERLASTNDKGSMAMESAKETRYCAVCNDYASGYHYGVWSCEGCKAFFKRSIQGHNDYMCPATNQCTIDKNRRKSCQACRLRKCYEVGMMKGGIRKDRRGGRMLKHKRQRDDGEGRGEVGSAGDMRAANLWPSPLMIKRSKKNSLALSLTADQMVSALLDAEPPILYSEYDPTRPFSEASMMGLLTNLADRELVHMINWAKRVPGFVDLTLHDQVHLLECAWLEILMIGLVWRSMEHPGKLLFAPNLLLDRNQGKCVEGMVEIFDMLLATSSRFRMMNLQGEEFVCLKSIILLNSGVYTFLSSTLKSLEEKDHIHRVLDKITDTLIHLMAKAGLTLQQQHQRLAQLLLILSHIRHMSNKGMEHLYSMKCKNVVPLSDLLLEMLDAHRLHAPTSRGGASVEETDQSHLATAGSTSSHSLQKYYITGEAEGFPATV

ERα = target: T2, ERα (Homo sapiens, UniProt P03372); experiment: In vivo ERα degradation in MCF7 xenograft tumors (immunoblot); design: species or system NOD/SCID mice; conditions: for % ERα ↓: MCF7/estradiol model
T2 construct: robustly degrades ER in ER-positive breast cancer cell lines; endogenous in cells; host or cells: MCF7, T47D (cell culture); MCF7 and tamoxifen-resistant MCF7 xenograft tumours in mice
T2 sequence (P03372 1-595): T1 sequence (P03372 1-595 Y537S) with S537Y
Description: Approximately 18 hours after the final administration, mice were sacrificed, and MCF7 xenografts were harvested and lysed to determine ER levels by immunoblotting. […] Diet was supplemented with peanut butter to help maintain body weights.
Species: NOD/SCID female mice (Charles River, 6-7 weeks old upon arrival).
Animal handling: Axial mammary fat pad implantation of 5×10^6 MCF7 cells/200 per mouse (17β-estradiol 0.36 mg 90-day pellet implanted day before).
Dosing: Oral (gavage), once a day (QD) for 3 days (QD×3). Vehicle: 2% Tween80/PEG400 (‘PEG/Tween’).
Sampling: Terminal sacrifice was ˜18 hrs after last dose; tumors were harvested, divided and flash frozen. ERα levels were determined by immunoblotting.
Cell Lysis: flash frozen tumors were removed from −80° C. storage and placed on dry ice. RIPA lysis buffer and Halt protease inhibitors were used at 400 μl per tumor sample. A steel ball (5 mm) was placed in each sample for tissue disruption. Samples were lysed with TissueLyzer at 24 Hz for 4 minutes. The homogenization was stopped half way through the process and the block flipped over for the duration of the process. Steel beads were pulled out of the tubes and the lysates were spun down at 21,000×g for 15 minutes at 4° C. Lysates were then measured for total protein concentration by BCA (per manufacturer's protocol).
Detection of proteins by immunoblot: lysates were mixed with sample buffer and reducing agent (per manufacturer's protocol). Samples were denatured at 95° C. for 5 minutes in thermal cycler. Samples were cooled and spun down (5000×g; 1 minute) prior to loading on gel. Gels were loaded with 10 μg total protein per lane. Samples were loaded on 4-15% Criterion Tris/Glycine gels and run for 25 minutes at 250 constant volts in 1×Tris/Glycine/SDS buffer. Protein was transferred from gels to nitrocellulose with Bio-Rad Turbo on default setting. All blots were rinsed with distilled water and blocked for 1 hour at RT in 5% BSA in TBS-T (TBS with 0.1% Tween) on rocker. The blots were cut so that beta-actin and ERα can be detected from the same lane/sample.
Blots were incubated with primary antibody in 5% BSA in TBST (0.1%) overnight at 4° C. on rocker:
Blot was washed with TBST (0.1%) three times for 5 minutes on rocker at RT. Secondary antibody was added, and blots incubated at RT on rocker for 1 hour (1:18,000 anti-rabbit-HRP in TBS-T). Blots were washed 3 times in TBST (0.1%) for 5 minutes at RT on the rocker. Signal was developed with Pierce WestFemto maximum sensitivity substrate for 5 minutes and blots imaged on BioRad ChemiDoc.
Sampling: Tumors were measured twice weekly. Terminal sacrifice was ˜18 hr after last dose; tumors were harvested, divided, and flash frozen. ERα levels were determined by immunoblotting.
At study termination, the tumors were removed from the mice, and ERα levels were determined by immunoblotting the tumor homogenates.
Sampling: tumors were measured twice weekly. Terminal sacrifice was ˜18 hr after last dose; tumors were harvested, divided, and flash frozen. ERα levels were determined by immunoblotting.

T47D cells = experiment: Live-cell imaging growth studies and EC50 for growth inhibition, T47D; format: cell-based; conditions: Homo sapiens, read-out: Approximate Half-maximal Effective Concentration (EC50) for growth inhibition
Description: MCF7, T47D, T47D ESR1 Y537S or T47D ESR1 D538G cells were seeded at 2×10^5 density per well in 6-well tissue culture-treated plates in DMEM/F12/10% FBS (2 mL total volume). […] The plate was then placed in the Incucyte® S3 Live-Cell Analysis System and images were acquired every 4 hours for a total of 5 days (120 hours). Data were analyzed using the Incucyte® Software v2020C which quantified cell surface area coverage as confluence values. Relative growth was calculated for all timepoints for all growth conditions relative to the confluence value observed for the control at 120 hours. Graphing and statistical analyses were performed using Graphpad Prism (GraphPad Software).

For `O=C1CC[C@H](N2Cc3cc(N4CCN(CC5CCN(c6ccc([C@@H]7c8ccc(O)cc8CC[C@@H]7c7ccccc7)cc6)CC5)CC4)ccc3C2=O)C(=O)N1` [Compound (I-c), (3S)-3-[5-[4-[[1-[4-[(1R,2S)-6-hydroxy-2-phenyl-tetralin-1-yl]phenyl]-4-piperidyl]methyl]piperazin-1-yl]-1-oxo-isoindolin-2-yl]piperidine-2,6-dione], the “reduction of tumor ERα levels” value (ERα (ESR1 Y537S); 10 mg/kg oral once daily) was 79%, the “reduction of tumor ERα levels” value (ERα (ESR1 Y537S); 30 mg/kg oral once daily) was 88% and the “mutant ER protein levels” value (ERα (ESR1 Y537S); ESR1 Y537S PDX, 10 mg/kg) was “significantly reduced”. For the same compound, the “reduction of tumor ERα levels vs vehicle” value (ERα; 10 mg/kg p.o. once daily x 3 days, ~18 h after last dose) was “up to 95%”, the “reduction of tumor ERα levels vs vehicle” value (ERα; 3, 10 and 30 mg/kg daily oral, 28 days (all doses), at study termination) was > 94% and > 90% and the “% ERα ↓” value (ERα; 3 mg/kg) was 95%. The “% ERα ↓” value (ERα; 10 mg/kg) was 97%, the “% ERα ↓” value (ERα; 30 mg/kg) was 94% and the EC50 (T47D cells) was 10 nM.
